Test results taken from the supplement of paper PMC10331698.
± gives the standard deviation of the averaged measurements.

Legend:
Test in all cases: level (log10 ratio to DMSO vehicle control); higher = higher biomarker level / cell amount than vehicle control
[1] = compound: C=CC(=O)OCCC(F)(F)C(F)(F)C(F)(F)C(F)(F)C(F)(F)C(F)(F)C(F)(F)C(F)(F)F [8:2 Fluorotelomer acrylate]; settings: in DMSO
Description: (§1)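 BioMAP Diversity Plus panel of 12 human primary cell co-culture systems (3C, 4H, LPS, SAg, BT, BF4T, BE3C, CASM3C, HDF3CGF, KF3CT, MyoF, Mphg). Compounds were added 1 h before stimulation and left for 24 h (MyoF 48 h; BT 72 h for soluble read-outs or 6 d for IgG). Biomarkers were read by ELISA, cytotoxicity by SRB, PBMC viability and proliferation by Alamar Blue. Each well value was divided by the mean of 8 DMSO control wells on the same plate and log10 transformed; duplicate blinded samples were tested at 4 concentrations.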

[2] = compound: CN(Cc1cnc2nc(N)nc(N)c2n1)c1ccc(C(=O)N[C@@H](CCC(=O)O)C(=O)O)cc1 [Methotrexate]; settings: in DMSO
Description: as §1

[3] = compound: FC(F)(I)C(F)(F)C(F)(F)C(F)(F)C(F)(F)C(F)(F)I [1,6-Diiodoperfluorohexane]; settings: 6700 nM; in DMSO
Description: as §1

[4] = compound: O=C(O)C(F)(F)C(F)(F)C(F)(F)C(F)(F)C(F)(F)C(F)(F)C(F)(F)F [Ammonium perfluorooctanoate]; settings: in DMSO
Description: as §1

[5] = compound: O=C(O)C(F)(F)C(F)(F)C(F)(F)C(F)(F)C(F)(F)C(F)(F)C(F)(F)F [Perfluorooctanoic acid]; settings: in DMSO
Description: as §1

[6] = compound: O=S(=O)(O)CCC(F)(F)C(F)(F)C(F)(F)C(F)(F)F [4:2 Fluorotelomer sulfonic acid]; settings: in DMSO
Description: as §1

[7] = compound: OCCCCC(F)(F)C(F)(F)C(F)(F)C(F)(F)F [4:4 Fluorotelomer alcohol]; settings: in DMSO
Description: as §1

Test System	level (log10) ([1]; 6700 nM)	level (log10) ([1]; 20000 nM)	level (log10) ([1]; 60000 nM)	level (log10) ([2]; 1500 nM)	level (log10) ([2]; 4400 nM)	level (log10) ([2]; 13000 nM)	level (log10) ([2]; 40000 nM)	level (log10) [3]	level (log10) ([4]; 6700 nM)	level (log10) ([4]; 20000 nM)	level (log10) ([4]; 60000 nM)	level (log10) ([5]; 6700 nM)	level (log10) ([5]; 20000 nM)	level (log10) ([5]; 60000 nM)	level (log10) ([6]; 6700 nM)	level (log10) ([6]; 20000 nM)	level (log10) ([6]; 60000 nM)	level (log10) ([7]; 6700 nM)	level (log10) ([7]; 20000 nM)	level (log10) ([7]; 60000 nM)
BE3C:uPA	-0.0175 ± 0.005	-0.008 ± 0.0028	-0.001 ± 0.017	-0.013 ± 0.0028	-0.0315 ± 0.033	-0.0205 ± 0.052	-0.0015 ± 0.036	-0.002	0.002 ± 0.0071	-0.002 ± 0.0042	0.018 ± 0.0085	-0.014 ± 0.013	-0.0065 ± 0.0021	0.0185 ± 0.015	-0.001 ± 0.014	0 ± 0.0057	-0.0035 ± 0.0092	0.0035 ± 0.011	-0.0115 ± 0.00071	0.0015 ± 0.0021
KF3CT:uPA	0.003 ± 0.013	-0.0165 ± 0.037	-0.004 ± 0.0014	-0.0115 ± 0.0021	-0.0195 ± 0.00071	-0.031 ± 0.057	-0.045 ± 0.059	-0.002	0.0125 ± 0.012	0.006 ± 0.017	0.001 ± 0.013	0.0095 ± 0.0021	0.012 ± 0.0042	0.013 ± 0.017	0 ± 0.0042	0 ± 0.0028	-0.0075 ± 0.028	0.01 ± 0.016	-0.0005 ± 0.00071	0.0005 ± 0.022
KF3CT:CXCL10/IP-10	-0.007 ± 0.0057	-0.0125 ± 0.0021	-0.0135 ± 0.00071	0.0025 ± 0.018	0.0015 ± 0.011	0.004 ± 0.011	-0.0005 ± 0.021	-0.005	-0.0025 ± 0.00071	-0.0045 ± 0.005	-0.007 ± 0.0014	-0.006 ± 0.0042	-0.01 ± 0.0042	-0.0275 ± 0.0064	-0.007 ± 0.0028	-0.0145 ± 0.011	-0.0115 ± 0.0092	0.0105 ± 0.04	0.02 ± 0.03	0.0275 ± 0.037
MyoF:TIMP-1	-0.0615 ± 0.011	-0.039 ± 0.025	-0.014 ± 0.0042	-0.0025 ± 0.0021	-0.025 ± 0.027	-0.012 ± 0.033	-0.0285 ± 0.084	-0.047	0.004 ± 0.0085	0.012 ± 0.02	0.01 ± 0.033	-0.0245 ± 0.005	0.0185 ± 0.0078	0.089 ± 0.013	-0.0465 ± 0.069	-0.0285 ± 0.047	-0.0095 ± 0.036	0.021 ± 0.062	0.0235 ± 0.067	0.0315 ± 0.087
CASM3C:Proliferation	0.006 ± 0.021	-0.05 ± 0.013	-0.045 ± 0.037	-0.011 ± 0.096	0.0805 ± 0.025	0.0585 ± 0.0021	0.041 ± 0.014	-0.119	0.0125 ± 0.018	-0.007 ± 0.045	-0.021 ± 0.0071	-0.023 ± 0.051	-0.0165 ± 0.032	0.0105 ± 0.0064	-0.012 ± 0.021	-0.044 ± 0.0057	0 ± 0.031	-0.01 ± 0.0099	-0.0345 ± 0.005	-0.0075 ± 0.057
lMphg:CXCL8/IL-8	-0.009 ± 0.052	0.019 ± 0.035	0.0665 ± 0.029	0.0075 ± 0.046	-0.017	0.003 ± 0.023	0.044 ± 0.0057	0.018	0.0185 ± 0.026	0.099 ± 0.0057	0.222 ± 0.033	0.009 ± 0.021	0.073 ± 0.048	0.175 ± 0.054	-0.0295 ± 0.043	-0.0215 ± 0.021	0.005 ± 0.031	-0.04 ± 0.035	-0.0355 ± 0.029	0.022 ± 0.021
KF3CT:CXCL8/IL-8	-0.011 ± 0.0014	-0.047 ± 0.076	-0.117 ± 0.053	0.002 ± 0.017	0 ± 0.021	-0.0085 ± 0.023	0.014 ± 0.011	-0.071	0.0075 ± 0.032	0.036 ± 0.018	0.034 ± 0.02	0.015 ± 0.0057	0.0225 ± 0.0064	-0.011 ± 0.0099	-0.0095 ± 0.0078	-0.024 ± 0.018	-0.023 ± 0.025	0.0185 ± 0.037	-0.006 ± 0.023	0.0205 ± 0.036
CASM3C:CD141/Thrombomodulin	0.0125 ± 0.011	-0.005 ± 0.0071	0.009 ± 0.013	0.0595 ± 0.005	-0.008 ± 0.093	0.0155 ± 0.098	0.044 ± 0.021	0.008	0.014 ± 0.035	0.0205 ± 0.036	0.0465 ± 0.032	0.0125 ± 0.0092	0.007 ± 0.016	-0.0115 ± 0.0064	-0.01 ± 0.031	-0.021 ± 0.0099	-0.0045 ± 0.029	-0.0065 ± 0.012	-0.0065 ± 0.0078	0.0145 ± 0.032
3C:CD54/ICAM-1	-0.009 ± 0.02	-0.0205 ± 0.018	0.002 ± 0.0085	0.0065 ± 0.0064	-0.0085 ± 0.005	0.0045 ± 0.013	-0.002 ± 0.0085	0.03	0.004 ± 0.014	0.0065 ± 0.0064	0.0065 ± 0.00071	-0.0145 ± 0.0035	-0.007 ± 0.0042	0.0185 ± 0.0078	0.001 ± 0.0014	-0.0125 ± 0.0021	0.0045 ± 0.012	0 ± 0.037	-0.017 ± 0.041	-0.002 ± 0.047
HDF3CGF:CXCL10/IP-10	0.01 ± 0.021	0.003 ± 0.037	0.01 ± 0.028	0.013 ± 0.0028	0.002 ± 0.0057	0.0035 ± 0.00071	-0.001 ± 0.016	-0.315	-0.015 ± 0.0042	-0.023 ± 0.016	-0.0495 ± 0.04	-0.0035 ± 0.011	-0.017 ± 0.016	-0.03 ± 0.034	0.0085 ± 0.0078	-0.013 ± 0.016	-0.0205 ± 0.06	0.0065 ± 0.0092	0.0155 ± 0.013	0.0105 ± 0.016
HDF3CGF:PAI-I	-0.0135 ± 0.013	-0.0665 ± 0.0021	-0.071 ± 0.0057	-0.0705 ± 0.14	-0.0725 ± 0.079	-0.0445 ± 0.079	-0.081 ± 0.16	-0.662	0.0885 ± 0.03	0.0995 ± 0.044	0.017 ± 0.044	0.02 ± 0.0071	0.0425 ± 0.019	0.088 ± 0.065	0.0085 ± 0.044	-0.011 ± 0.014	-0.02 ± 0.021	-0.0015 ± 0.012	0.0075 ± 0.03	0.0075 ± 0.054
lMphg:SRB-Mphg	-0.026 ± 0.0014	-0.012 ± 0.021	0.003 ± 0.037	-0.105 ± 0.073	-0.0855 ± 0.0021	-0.105 ± 0.064	0.0295 ± 0.025	-0.023	-0.0045 ± 0.0092	0.006 ± 0.0057	-0.007 ± 0.02	-0.0085 ± 0.013	0.0005 ± 0.005	-0.002 ± 0.03	-0.004	0.01	0.0065 ± 0.016	0.008 ± 0.016	-0.009 ± 0.0057	-0.01 ± 0.0085
